Measured values published in ChEMBL document CHEMBL5143641, “Expanding the Chemical Diversity of Fasamycin Via Genome Mining and Biocatalysis” (2022).

Key:
Type in all cases: functional
Bacillus subtilis = assay: Antimicrobial activity against Bacillus subtilis ATCC 23857 assessed as inhibition of microbial growth incubated for 16 hrs under shaking condition by microdilution assay
Escherichia coli = assay: Antimicrobial activity against Escherichia coli ATCC 25922 assessed as inhibition of microbial growth incubated for 16 hrs under shaking condition by microdilution assay
Candida albicans = assay: Antimicrobial activity against Candida albicans ATCC 10231 assessed as inhibition of microbial growth incubated for 16 hrs under shaking condition by microdilution assay
Staphylococcus aureus = assay: Antimicrobial activity against Staphylococcus aureus ATCC 51650 assessed as inhibition of microbial growth incubated for 16 hrs under shaking condition by microdilution assay

SMILES | MIC (Bacillus subtilis) | MIC (Escherichia coli) | MIC (Candida albicans) | MIC (Staphylococcus aureus)
COc1cc(C)c(-c2cc(OC)cc3cc4c(c(O)c23)C(=O)c2c(O)cc(O)cc2C4(C)C)c(O)c1 | 12.5 µg/mL | > 100 µg/mL | > 100 µg/mL | 6.3 µg/mL
NC[C@H]1O[C@H](O[C@H]2[C@H](O)[C@@H](O[C@H]3O[C@H](CO)[C@@H](O)[C@H](N)[C@H]3O)[C@H](N)C[C@@H]2N)[C@H](O)[C@@H](O)[C@@H]1O [KANAMYCIN] | 0.8 µg/mL | – | – | 1.6 µg/mL
COc1cc(C)c(-c2cc(O)cc3cc4c(c(O)c23)C(=O)c2c(cc(OC)c(Br)c2O)C4(C)C)c(O)c1 | 3.1 µg/mL | > 100 µg/mL | > 100 µg/mL | 3.1 µg/mL
COc1cc(O)c2c(c1)C(C)(C)c1cc3cc(O)cc(-c4c(O)cc(OC)c(Br)c4C)c3c(O)c1C2=O | 1.6 µg/mL | > 100 µg/mL | > 100 µg/mL | 3.1 µg/mL
COc1cc(C)c(-c2cc(O)cc3cc4c(c(O)c23)C(=O)c2c(O)cc(OC)cc2C4(C)C)c(O)c1 | 1.6 µg/mL | > 100 µg/mL | > 100 µg/mL | 3.1 µg/mL
COc1cc(O)c(-c2cc(O)cc3cc4c(c(O)c23)C(=O)c2c(O)cc(O)cc2C4(C)C)c(C)c1Br | 3.1 µg/mL | > 100 µg/mL | > 100 µg/mL | 3.1 µg/mL
COc1cc(O)c2c(c1)C(C)(C)c1cc3cc(O)cc(-c4c(O)cc(OC)c(Cl)c4C)c3c(O)c1C2=O | 1.6 µg/mL | > 100 µg/mL | > 100 µg/mL | 3.1 µg/mL
COc1cc2c(c(O)c1Cl)C(=O)c1c(cc3cc(O)cc(-c4c(O)cc(OC)c(Br)c4C)c3c1O)C2(C)C | 1.6 µg/mL | > 100 µg/mL | > 100 µg/mL | 3.1 µg/mL
COc1cc(C)c(-c2cc(O)cc3cc4c(c(O)c23)C(=O)c2c(cc(OC)c(Cl)c2O)C4(C)C)c(O)c1 | 1.6 µg/mL | > 100 µg/mL | > 100 µg/mL | 3.1 µg/mL
COc1cc(C)c(-c2cc(O)cc3cc4c(c(O)c23)C(=O)c2c(cc(O)c(Cl)c2O)C4(C)C)c(O)c1 | 12.5 µg/mL | > 100 µg/mL | > 100 µg/mL | 12.5 µg/mL
COc1cc(O)c(-c2cc(O)c(Br)c3cc4c(c(O)c23)C(=O)c2c(O)cc(O)cc2C4(C)C)c(C)c1Br | 1.6 µg/mL | > 100 µg/mL | > 100 µg/mL | 1.6 µg/mL
COc1cc(O)c(-c2cc(O)cc3cc4c(c(O)c23)C(=O)c2c(O)cc(O)cc2C4(C)C)c(C)c1Cl | 6.3 µg/mL | > 100 µg/mL | > 100 µg/mL | 6.3 µg/mL
COc1cc(C)c(-c2cc(OC)cc3cc4c(c(O)c23)C(=O)c2c(O)cc(OC)cc2C4(C)C)c(O)c1 | > 100 µg/mL | > 100 µg/mL | > 100 µg/mL | > 100 µg/mL
